Data on 14 molecules can be found in patent publication EP1914237B1 (priority 1999, dated 2001).

The test system of one series is HSV-1. Kind of series: microbe, parasite or virus in culture. The format is cell-based.
Series [1] concerns human lung fibroblast cells (MRC-5). Nature of the series: Cytotoxicity of test compounds in vitro in MRC-5 cells (visual estimate of cell number). The format is cell-based. The method, then: (§1) Cytotoxicity of test compounds in vitro: Subconfluent human lung fibroblast cells (MRC-5, American Type Culture Collection, Rockville, MD) in 24-well plates were treated with drugs diluted in E-MEM (Gibco BRL, Grand Island, NY) supplemented with 2% fetal bovine serum and antibiotics. After 5 days of incubation at 37°C, the cell monolayer was visually inspected under magnification and the concentration of drug which caused a 50% reduction in cell number was estimated.

In another series the test system is Humans with Osteoporosis. Conditions: postmenopausal women, oral 0.1 to 100 mg/kg/day, two to three years; versus placebo.
Series [2] concerns HCMV.
The subject of series [3] is HIV-1.
Series [4] concerns HCMV. Kind of series: microbe, parasite or virus in culture. Conditions: Human betaherpesvirus 5, MRC5.
Series [5] is described as follows: Cytotoxicity of test compounds in vitro in MRC-5 cells (visual estimate of cell number). The format is cell-based, human. Particulars: human, mrc-5 cells; Table 2; MRC-5, 5 days at 37°C. The method, then: as §1
Series [6] has as its system HIV-1. Nature of the series: microbe, parasite or virus in culture. Particulars: Human immunodeficiency virus 1.
Series [7] can be described thus: Cytotoxicity by the method of Hostetler et al. (HIV study). The format is cell-based. Particulars: human, ht4-6c cells; Table 6; cell line of the cytotoxicity test not stated.
For series [8], the system named is Humans with Steroid-Induced Osteoporosis. Kind of series: Stimulation of bone formation in humans with steroid-induced osteoporosis. The format is in vivo. Particulars: oral 0.1 to 100 mg/kg/day, one month to one year; versus placebo.
A further series deals with MLO-Y4 osteocytic cells. Conditions: pretreated 1 hour, then 6 hours with 10^-4 M dexamethasone; percentage of dead cells; p<0.05.
The test system of a further series is Calvarial cells. Nature of the series: Dexamethasone-induced apoptosis in calvarial cells (trypan blue uptake). The format is cell-based, neonatal C57BL/6J mice. Particulars: pretreated 1 hour, then 6 hours with 10^-4 dexamethasone; p=<0.05.
For another series, the system named is Ovariectomized Rats. Conditions: subcutaneous 0 to 8 mg /kg/day, four to twelve weeks; versus ovariectomized controls.
The next series deals with HFF Cells. Conditions: human.
For the next series, the system named is cowpox virus. Nature of the series: microbe, parasite or virus in culture. The format is cell-based. Particulars: for IC50: read-out: IC50 in cowpox infected cells.
Series [9] deals with Variola Major, Bangladesh. Kind of series: organism not typed. The format is cell-based. Conditions: read-out: EC50, µM Variola Major, Bangladesh.
The test system of the next series is Cowpox. Nature of the series: organism not typed. Conditions: read-out: EC50, µM Cowpox. Type of series: cell-based.
For the next series, the system named is Vero cells. Particulars: monkey.
The next series relates to CEM. Kind of series: Cytotoxicity in CEM cells. Particulars: read-out: CEM, CC50; Table 1; rapidly dividing cells.
The test system of a further series is vaccinia virus. Nature of the series: microbe, parasite or virus in culture. Type of series: cell-based. Particulars: Orthopoxvirus vaccinia, HFF; for IC50: read-out: IC50 against vaccinia virus; for EC50: read-out: Vaccinia EC50, µM.
For a further series, the system named is Vaccinia. Kind of series: microbe, parasite or virus in culture. The format is cell-based. Particulars: read-out: EC50, µM Vaccinia.
The next series is described as follows: in vitro. Conditions: monkey, vero cells.
The test system of a further series is Variola Minor, Garcia. Type of series: cell-based. Conditions: Table 4; Vero cells; average of 3 determinations.
In the next series the test system is Variola Major, Yamada. Type of series: cell-based. Particulars: Table 4; Vero cells; average of 3 determinations.
Setting [10] is: Table 7, assessed as described in Example 17, 7200 min.
Setting [11] is: Table 4, Vero cells, average of 3 determinations.
Setting [12] is: Table 1, against HCMV, CC50 in CEM cells.
The mark [13] stands for this setting: Cowpox virus, HFF, read-out: Cowpox, EC50, µM.

Read-outs that look alike come from different tables or passages of the source.

By EC50 is commonly meant the concentration needed to bring the measured effect to its halfway point. In general, CC50 refers to the concentration that lowers cell viability or growth by half. As a reminder, the IC50 is the concentration that inhibits the measured activity by half.

Take `CCCCCCCCCCCCCCCCCCOCCOP(=O)(O)COC(CO)Cn1ccc(N)nc1=O` (stereo not drawn) [1-O-octadecylethanediol-2-CDV]: in the series with HSV-1 (read-out: EC50), the concentration giving a half-maximal response (EC50) worked out at 0.002 µM. The CC50 in [1] (Table 2, MRC-5, 5 days at 37°C) was 210 µM; in series [1] (setting [10]) it was 210 µM.

Consider `CCCCCCCCCCCCCCCCCCOCCCOP(=O)(O)C(O)(CCCN)P(=O)(O)O` (stereo not drawn) [1-O-octadecyloxypropyl alendronate, 1-O-octadecyloxypropyl-alendronate], for which, in the series on Humans with Osteoporosis, the fractures entry was “fewer fractures” and the “rate of reduction in bone density” value was “a lesser rate of reduction in bone density than the placebo group”.

Regarding `CCCCCCCCCCCCCCCCCCOCCOP1(=O)COC(Cn2ccc(N)nc2=O)CO1` (stereo not drawn) [1-O-octadecylethanediol-2-cCDV], the EC50 in the series with HCMV [2] was 0.3 nM; in the series on HSV-1 (read-out: EC50) it was 0.008 µM. Besides, the CC50 in series [1] (Table 2, MRC-5, 5 days at 37°C) was 320 µM; in series [1] (setting [10]), 320 µM.

Take `CCCCCCCCCCCCCCCCCCOCCCOP1(=O)COC(Cn2ccc(N)nc2=O)CO1` (stereo not drawn) [1-O-octadecylpropanediol-3-cCDV]: the figures for the EC50 in the series with HCMV [2] and with HSV-1 (read-out: EC50) were 0.3 nM and 0.33 µM, respectively. Moreover, the CC50 was 320 µM in series [1] (Table 2, MRC-5, 5 days at 37°C) and 320 µM in series [1] (setting [10]).

Take `CCCCCCCCCCCCCCCCOCCCOP(=O)(O)COCCn1cnc2c(N)ncnc21` [HDP-Adefovir]: the “Selectivity Index” value in the series on HCMV [2] was 65; with HIV-1 [3], 813. Further, the “EC50,µM” value in the series with HIV-1 [3] is “more active and selective than adefovir”. Also, the 50% effective concentration (EC50) in the series on HCMV [4] stood at 0.1 µM; in the series with HIV-1 [6] it was 0.008 µM. In series [5], the half-maximal cytotoxic concentration (CC50) at 120 h was 6.5 µM. In series [7], this molecule yielded a CC50 of 6.5 µM.

For “1-O-octadecyloxypropyl-amino-olpadronate”, in [8], the bone density result is reported as “bone density is increased” and the fractures result was “fractures are decreased”.

`CCCCCCCCCCCCCCCCOCCCOP(=O)(O)C(O)(CCCN)P(=O)(O)O` (stereo not drawn) [HDP-alendronate, 1-O-hexadecylpropanediol-3-alendronate]: the “concentration at which dexamethasone-induced apoptosis is inhibited” value with MLO-Y4 osteocytic cells was 10^-8 to 10^-5 M. Further, in the series with Calvarial cells, the “concentration at which the dexamethasone-induced increase in % dead cells is abolished” value is recorded as ≥ 10^-8. Besides, the “bone mass loss (ash weight of the femora)” value in the series with Ovariectomized Rats is “less bone mass loss than the ovariectomized controls”.

In the case of `CCCCCCCCCCCCCCCCOCCCOP1(=O)COC(Cn2ccc(N)nc2=O)CO1` (stereo not drawn) [HDP-cCDV, 1-O-hexadecylpropanediol-3-cyclic CDV], the CC50 in the series on HFF Cells was greater than 100 µM; in series [1] (Table 2, MRC-5, 5 days at 37°C) it was 320 µM; in [1] (setting [10]), 320 µM; in the series on Vero cells it was greater than 0.1 µM; with CEM, 30 µM. The EC50 in the series on HCMV [2] is 0.3 nM; with HCMV [2] (read-out: HCMV EC50), 0.5 nM; in the series on cowpox virus (Table 3, preliminary, HFF cells, CPE reduction, read-out: Cowpox, EC50), less than 0.03 µM; in series [9] (setting [11]), greater than 0.01 µM; in the series on HSV-1 (read-out: EC50), 0.03 µM; in the series on Cowpox (setting [11]), less than 0.03 µM. For the same molecule, in the series on cowpox virus (Table 3), the IC50 is less than 0.03 µM.

`CCCCCCCCCCCCCCCCCCOCCCOP(=O)(O)CO[C@H](CO)Cn1ccc(N)nc1=O` [1-O-octadecylpropanediol-3-CDV]: the EC50 in the series with HCMV [2] was 0.03 nM; in the series with HSV-1 (read-out: EC50), 0.003 µM. Moreover, the cytotoxic concentration (CC50) in series [1] (Table 2, MRC-5, 5 days at 37°C) is 32 µM; in series [1] (setting [10]), 32 µM.

Regarding `Nc1ccn(C[C@H]2COP(=O)(O)CO2)c(=O)n1` [cCDV, cyclic cidofovir], the CC50 in the series on HFF Cells was greater than 100 µM; in [1] (Table 2, MRC-5, 5 days at 37°C), greater than 1000 µM; in series [1] (setting [10]), greater than 1000 µM; in the series with Vero cells, greater than 100 µM; in the series with CEM it was greater than 1000 µM. Also, the “Selectivity Index” value in the series on HCMV [2] (setting [12]) is on record as >2,100. Also, the EC50 in the series on cowpox virus (setting [13]) is 0.72 µM; in series [9] (Vero), 100 µM; in the series on HSV-1 (Human alphaherpesvirus 1, MRC5), 2.1 µM; with vaccinia virus, 0.97 µM; with HCMV [4] it was 0.47 µM. Moreover, the IC50 in the series on cowpox virus (Cowpox virus, HFF) stood at 0.72 µM; in the series on vaccinia virus it was 0.97 µM.

On to `Nc1ccn(C[C@@H](CO)OCP(=O)(O)O)c(=O)n1` [CDV, cidofovir], for which the CC50 with HFF Cells was 89.8 µM; in series [1] (Table 2, MRC-5, 5 days at 37°C) it was greater than 1000 µM; in series [1] (setting [10]) it was greater than 1000 µM; in the series with CEM, 857 µM; in the series “in vitro” it was greater than 100 µM. Further, the “Selectivity Index” value in the series with HCMV [2] (setting [12]) is given as 1,900. The EC50 was found to be 2.1 µM in the series with cowpox virus (setting [13]); 100 µM in [9] (Vero); 1.2 µM with HSV-1 (Human alphaherpesvirus 1, MRC5); 1.8 µM in the series on vaccinia virus; 2.2 µM with Vaccinia (Orthopoxvirus vaccinia, Vero); 0.46 µM with HCMV [4]. For the same molecule, the EC50 in the series on Cowpox (Vero) was 3.8 µM. The half-maximal inhibitory concentration (IC50) in the series on cowpox virus (Cowpox virus, HFF) was 2.1 µM; with vaccinia virus, 1.8 µM.

`CCCCCCCCCCCCCCCCOP1(=O)COC(Cn2ccc(N)nc2=O)CO1` (stereo not drawn) [Hexadecyl-cCDV]: it took 40 nM to reach a half-maximal effect in the series with HCMV [2] (EC50). Also, the CC50 in series [1] (Table 2, MRC-5, 5 days at 37°C) is 6.5 µM.

Turning to `CCCCCCCCCCCCCCCCOCCCOP(=O)(O)CO[C@H](CO)Cn1ccc(N)nc1=O` [HDP-CDV], the EC50 was 0.002 nM in the series with HCMV [2]; 0.0015 µM in series [9] (setting [11]); less than 0.03 µM with Vaccinia (setting [11]); 0.0006 µM in the series on Variola Minor, Garcia; 0.0015 µM with Variola Major, Yamada; less than 0.03 µM in the series on Cowpox (setting [11]). In addition, the 50% cytotoxic concentration (CC50) was 10 µM in series [1] (Table 2, MRC-5, 5 days at 37°C); 10 µM in series [1] (setting [10]); greater than 0.1 µM in the series with Vero cells.

In turn, “1-O-octadecyl-sn-glyceryl-3-adefovir [1-O-octadecyl-sn-glycero-3-ADV]” had an EC50 with HCMV [2] of 210 nM.
